Measurements published in paper PMC8170132, “Kinetics of Abacavir-Induced Remodelling of the Major Histocompatibility Complex Class I Peptide Repertoire” (Frontiers in Immunology, 2021).

Legend:
HLA-B*57:01 [1] = target: T1, HLA-B*57:01 (Homo sapiens, UniProt P01889, D201E/D98Y/E176V/E187L/E204Q/E69M/E70A/G107R/I90N/K202T/L105A/L119I/N104I/N87E/Q89R/Q94S/R106L/R155S/R180L/R86G/S101N/S121V/S35A/S48A/T118I/V36M/Y140S/Y91M); assay: LC-MRM-MS quantitation of HLA ligands and co-purified abacavir from abacavir treated C1R.B*57:01 cells; type: cell-based; settings: for Abacavir dependence: LC-MRM-MS detection, classification of the peptide based on abacavir dependency; for Linear regression slope: linear regression of LC-MRM-MS peptide abundance over abacavir treatment time; for Category of abacavir impact on peptide abundance in the immunopeptidome: C1R.B*57:01, 35 µM abacavir 0-16 h or constant, linear regression of normalised abundance, three replicates
HLA-B*57:01 [2] = target: T1, HLA-B*57:01; parameters: method as in Illing et al., Nature 2012; settings: ref Illing et al., Nature 2012, cited from earlier work; for HLA-B*57:01 previous observation by LC-MS/MS, Abacavir treated: abacavir treated cells; for HLA-B*57:01 previous observation by LC-MS/MS, Untreated: untreated cells

**Q.** With STIRLLTSL as the sequence, how does the Abacavir dependence (HLA-B*57:01 [1]) read?
**A.** Its Abacavir dependence is “Facilitated”.

**Q.** And the Linear regression slope (HLA-B*57:01 [1])?
**A.** The Linear regression slope was 0.0278.

**Q.** And the “HLA-B*57:01 previous observation by LC-MS/MS, Abacavir treated” value (HLA-B*57:01 [2])?
**A.** Its value is “+ (+ (< 5% FDR))”.

**Q.** And the “HLA-B*57:01 previous observation by LC-MS/MS, Untreated” value (HLA-B*57:01 [2])?
**A.** Its value is “+ (+ (< 5% FDR))”.

**Q.** What does the source list for RVLPPSHRVTW?
**A.** Abacavir dependence (HLA-B*57:01 [1]): Minimal; Linear regression slope (HLA-B*57:01 [1]): 0.0197; HLA-B*57:01 previous observation by LC-MS/MS, Abacavir treated (HLA-B*57:01 [2]): + (+ (< 5% FDR)); HLA-B*57:01 previous observation by LC-MS/MS, Untreated (HLA-B*57:01 [2]): + (+ (< 5% FDR))

**Q.** Which “Category of abacavir impact on peptide abundance in the immunopeptidome” value (“Category of abacavir impact” below) (HLA-B*57:01 [1]) does the source give for KTIETSPSL [HLA-B*57:01 ligand] here?
**A.** Its value is “abacavir facilitated (abacavir facilitated (slope > 0.02, abundance > 0 at t = 0 in at least two of three replicates))”.

**Q.** And the “HLA-B*57:01 previous observation by LC-MS/MS, Abacavir treated” value (HLA-B*57:01 [2])?
**A.** The value was “# (# (> 5% FDR))”.

**Q.** For “NTVELRVKI [non-labelled HLA-B*57:01 ligand]”, which “Category of abacavir impact” value (HLA-B*57:01 [1]) is on record?
**A.** Its value is “Dependent”.

**Q.** And the Abacavir dependence (HLA-B*57:01 [1])?
**A.** The Abacavir dependence was “Dependent”.

**Q.** What about the Linear regression slope (HLA-B*57:01 [1]) of the same sequence?
**A.** Its Linear regression slope is 0.0281.

**Q.** And the “HLA-B*57:01 previous observation by LC-MS/MS, Abacavir treated” value (HLA-B*57:01 [2])?
**A.** Its value is “+ (+ (< 5% FDR))”.

**Q.** What does the source list for ASSSQIIHI?
**A.** Abacavir dependence (HLA-B*57:01 [1]): Dependent; Linear regression slope (HLA-B*57:01 [1]): 0.0446; HLA-B*57:01 previous observation by LC-MS/MS, Abacavir treated (HLA-B*57:01 [2]): + (+ (< 5% FDR))

**Q.** What does the source list for “RVDPAKGLFYF [non-labelled HLA-B*57:01 ligand]”?
**A.** Category of abacavir impact on peptide abundance in the immunopeptidome (HLA-B*57:01 [1]): Inhibited; Abacavir dependence (HLA-B*57:01 [1]): Inhibited; Linear regression slope (HLA-B*57:01 [1]): -0.0245; HLA-B*57:01 previous observation by LC-MS/MS, Abacavir treated (HLA-B*57:01 [2]): + (+ (< 5% FDR)); HLA-B*57:01 previous observation by LC-MS/MS, Untreated (HLA-B*57:01 [2]): + (+ (< 5% FDR))

**Q.** With YFDPANGKF as the sequence, how does the Linear regression slope (HLA-B*57:01 [1]) read?
**A.** The Linear regression slope was 0.0159.

**Q.** What about the “HLA-B*57:01 previous observation by LC-MS/MS, Abacavir treated” value (HLA-B*57:01 [2]) of the same sequence?
**A.** The value was “+ (+ (< 5% FDR))”.

**Q.** And the “HLA-B*57:01 previous observation by LC-MS/MS, Untreated” value (HLA-B*57:01 [2])?
**A.** Its value is “+ (+ (< 5% FDR))”.

**Q.** For TALPLLKQF, which Abacavir dependence (HLA-B*57:01 [1]) is on record?
**A.** The Abacavir dependence was “Inhibited”.

**Q.** What about the Linear regression slope (HLA-B*57:01 [1]) of the same sequence?
**A.** Its Linear regression slope is -0.0283.

**Q.** What about the “HLA-B*57:01 previous observation by LC-MS/MS, Abacavir treated” value (HLA-B*57:01 [2]) of the same sequence?
**A.** Its value is “+ (+ (< 5% FDR))”.

**Q.** What about the “HLA-B*57:01 previous observation by LC-MS/MS, Untreated” value (HLA-B*57:01 [2]) of the same sequence?
**A.** The value was “+ (+ (< 5% FDR))”.

**Q.** For “KTFKDVGNLL [non-labelled HLA-B*57:01 ligand]”, which “Category of abacavir impact” value (HLA-B*57:01 [1]) is on record?
**A.** Its value is “Facilitated”.

**Q.** What about the Abacavir dependence (HLA-B*57:01 [1]) of the same sequence?
**A.** Its Abacavir dependence is “Facilitated”.

**Q.** What about the Linear regression slope (HLA-B*57:01 [1]) of the same sequence?
**A.** The Linear regression slope was 0.0314.

**Q.** And the “HLA-B*57:01 previous observation by LC-MS/MS, Abacavir treated” value (HLA-B*57:01 [2])?
**A.** Its value is “+ (+ (< 5% FDR))”.

**Q.** What about the “HLA-B*57:01 previous observation by LC-MS/MS, Untreated” value (HLA-B*57:01 [2]) of the same sequence?
**A.** The value was “+ (+ (< 5% FDR))”.

**Q.** With KAIDYIRFL as the sequence, how does the Abacavir dependence (HLA-B*57:01 [1]) read?
**A.** The Abacavir dependence was “Inhibited”.

**Q.** What about the Linear regression slope (HLA-B*57:01 [1]) of the same sequence?
**A.** The Linear regression slope was -0.0293.

**Q.** What about the “HLA-B*57:01 previous observation by LC-MS/MS, Abacavir treated” value (HLA-B*57:01 [2]) of the same sequence?
**A.** The value was “+ (+ (< 5% FDR))”.

**Q.** And the “HLA-B*57:01 previous observation by LC-MS/MS, Untreated” value (HLA-B*57:01 [2])?
**A.** The value was “# (# (> 5% FDR))”.

**Q.** What does the source list for KSIFVFTHV?
**A.** Abacavir dependence (HLA-B*57:01 [1]): Dependent; Linear regression slope (HLA-B*57:01 [1]): 0.0498; HLA-B*57:01 previous observation by LC-MS/MS, Abacavir treated (HLA-B*57:01 [2]): + (+ (< 5% FDR))

**Q.** Which Abacavir dependence (HLA-B*57:01 [1]) does the source give for ITNADSATRLL here?
**A.** The Abacavir dependence was “Inhibited”.

**Q.** And the Linear regression slope (HLA-B*57:01 [1])?
**A.** The Linear regression slope was -0.0254.

**Q.** What about the “HLA-B*57:01 previous observation by LC-MS/MS, Untreated” value (HLA-B*57:01 [2]) of the same sequence?
**A.** Its value is “+ (+ (< 5% FDR))”.

**Q.** For KTAGYPNVNI, which Abacavir dependence (HLA-B*57:01 [1]) is on record?
**A.** The Abacavir dependence was “Dependent”.

**Q.** And the Linear regression slope (HLA-B*57:01 [1])?
**A.** Its Linear regression slope is 0.0509.

**Q.** What about the “HLA-B*57:01 previous observation by LC-MS/MS, Abacavir treated” value (HLA-B*57:01 [2]) of the same sequence?
**A.** The value was “+ (+ (< 5% FDR))”.

**Q.** What about the “HLA-B*57:01 previous observation by LC-MS/MS, Untreated” value (HLA-B*57:01 [2]) of the same sequence?
**A.** The value was “# (# (> 5% FDR))”.

**Q.** With VTYPAKAKGTFI as the sequence, how does the Abacavir dependence (HLA-B*57:01 [1]) read?
**A.** The Abacavir dependence was “Dependent”.

**Q.** And the Linear regression slope (HLA-B*57:01 [1])?
**A.** The Linear regression slope was 0.0340.

**Q.** What about the “HLA-B*57:01 previous observation by LC-MS/MS, Abacavir treated” value (HLA-B*57:01 [2]) of the same sequence?
**A.** The value was “+ (+ (< 5% FDR))”.

**Q.** What does the source list for GTYQDVGSLNI?
**A.** Abacavir dependence (HLA-B*57:01 [1]): Dependent; Linear regression slope (HLA-B*57:01 [1]): 0.0429; HLA-B*57:01 previous observation by LC-MS/MS, Abacavir treated (HLA-B*57:01 [2]): + (+ (< 5% FDR))

**Q.** With TFDDIVHSF as the sequence, how does the Linear regression slope (HLA-B*57:01 [1]) read?
**A.** Its Linear regression slope is 0.0142.

**Q.** What about the “HLA-B*57:01 previous observation by LC-MS/MS, Abacavir treated” value (HLA-B*57:01 [2]) of the same sequence?
**A.** The value was “+ (+ (< 5% FDR))”.

**Q.** What about the “HLA-B*57:01 previous observation by LC-MS/MS, Untreated” value (HLA-B*57:01 [2]) of the same sequence?
**A.** Its value is “+ (+ (< 5% FDR))”.

**Q.** For ASAIIIQRW, which Abacavir dependence (HLA-B*57:01 [1]) is on record?
**A.** Its Abacavir dependence is “Minimal”.

**Q.** And the Linear regression slope (HLA-B*57:01 [1])?
**A.** Its Linear regression slope is 0.0134.

**Q.** What about the “HLA-B*57:01 previous observation by LC-MS/MS, Abacavir treated” value (HLA-B*57:01 [2]) of the same sequence?
**A.** Its value is “+ (+ (< 5% FDR))”.

**Q.** What about the “HLA-B*57:01 previous observation by LC-MS/MS, Untreated” value (HLA-B*57:01 [2]) of the same sequence?
**A.** Its value is “+ (+ (< 5% FDR))”.

**Q.** With FSHRIYVAY as the sequence, how does the Abacavir dependence (HLA-B*57:01 [1]) read?
**A.** Its Abacavir dependence is “Minimal”.

**Q.** What about the Linear regression slope (HLA-B*57:01 [1]) of the same sequence?
**A.** Its Linear regression slope is 0.0098.

**Q.** What about the “HLA-B*57:01 previous observation by LC-MS/MS, Abacavir treated” value (HLA-B*57:01 [2]) of the same sequence?
**A.** The value was “+ (+ (< 5% FDR))”.

**Q.** What about the “HLA-B*57:01 previous observation by LC-MS/MS, Untreated” value (HLA-B*57:01 [2]) of the same sequence?
**A.** Its value is “+ (+ (< 5% FDR))”.

**Q.** For RTLLEDGTFKV, which Abacavir dependence (HLA-B*57:01 [1]) is on record?
**A.** The Abacavir dependence was “Dependent”.

**Q.** What about the Linear regression slope (HLA-B*57:01 [1]) of the same sequence?
**A.** Its Linear regression slope is 0.0443.

**Q.** What about the “HLA-B*57:01 previous observation by LC-MS/MS, Abacavir treated” value (HLA-B*57:01 [2]) of the same sequence?
**A.** The value was “+ (+ (< 5% FDR))”.
